Laboratory results taken from US12214080B2, “Micronized lipids” (MCAL Therapeutics Inc., priority 2021, dated 2025).
“Also recorded” adds a separate entry of the source.

What was measured:
[1] = Solubility and general physicochemical properties of MCAL-201
Experimental: The general and physiochemical properties of MCAL-201 are: • 1,2-EPRG has a molecular weight of 611.05 g/mol • Empirical formula: C39H78O4 • Appearance: White powder • Particle size: 1-10 μm (post micronization) • Hygroscopicity: Low • Chirality: Racemic • Enantiomeric excess: 0 • Melting point: 57° C. • Solubility: Insoluble in water. Soluble in chloroform (40 mg/mL) and castor oil (25 mg/mL)
However, preparation of a water soluble cyclodextrin inclusion complex of MCAL-201 was used in nonclinical efficacy studies. In addition, solutions of MCAL-201 in castor oil which can be emulsified to micron sized liquid particles in aqueous buffers can be used to deliver MCAL-201 directly to the tear film lipid layer.

[2] = Chemical and isomeric stability (1,2-EPRG to 1,3-EPRG acyl migration), NMR analysis; type: physicochemical
Source text: This led to development of the delivery of solid MCAL-201 as a suspension of crystalline or amorphous micronized solid particle suspended in a water-based formulation isotonic with tear. Although MCAL-201 crystalline drug substance floated on phosphate buffered saline (PBS) it could be suspended following micronization to 1-10 micron particles which could be stably suspended in PBS with the aid of polysorbate 80 as a wetting agent and xanthan gum to adjust density and viscosity of the drug product.

[3] = Physical stability of the micronized suspension toward separation of particles; type: physicochemical; settings: suspension in PBS with polysorbate 80 and xanthan gum, room temperature
Source text: Treatment of these particles with poly-sorbate 80 (0.3% w/w) as a wetting agent affords a suspension of the micronized particles in a mixture of xanthan gum (0.1-0.3% w/w, See FIG. 3) in Phosphate Buffered Saline (PBS, pH 6-8, 260-320 mOsm/L) suitable for administration as a stably suspended topical drop or suspension for injection.

[4] = system: healthy dogs; assay: Tear film break-up time (TBUT) after topical ocular administration; type: in vivo, dog; settings: 5 healthy adult dogs, single administration (FIG. 6)
Experimental: (§1) A non-GLP topical ocular administration dose range-finding pharmacology and toxicity study of MCAL-201 was conducted in naïve dogs. The primary study objective was to assess the tolerability of topical ocular administration of MCAL-201 in dogs with a secondary objective to obtain data supporting pharmacological activity in healthy dogs.
(§2) The effects of vehicle and 0.1, 0.5, 1, 3 and 10 mg/mL MCAL-201 delivered as a 35 μL drop bilaterally QD (0.0035, 0.0175, 0.035, 0.105 and 0.35 mg/eye/day) were evaluated in Part I. The dosing regimen is summarized in 3.
(§3) Scoring of the ocular surface and anterior segment of the eye was performed using the SPOTS system by a board-certified veterinary ophthalmologist. SPOTS was performed for each concentration evaluated. To measure TBUT, fluorescein was instilled in the eye and the eye was manually closed and then gently opened to simulate a blink. The time interval between the opening of the eye and the first sign of disruption of the uniform tear film, as indicated by breaks in the fluorescein was recorded in seconds. The procedure was repeated three times on both eyes, first right than left eye. After BID dosing with 10 mg/mL MCAL-201, SPOTS was also performed at 48 hours after the last dose.

[5] = system: naïve dogs; assay: Non-GLP topical ocular dose range-finding toxicity and tolerability study (SPOTS, IOP, STT); type: in vivo
Experimental: as §1, §2, §3

CCCCCCCCCCCCCCCCCCCCOCC(CO)OC(=O)CCCCCCCCCCCCCCC (racemic) [MCAL-201, 1-O-eicosanyl-2-palmitoyl-rac-glycerol]
Hygroscopicity [1]: Low | Solubility in water ([1]; water): Insoluble; also recorded: extreme insolubility | 1,3-EPRG isomeric content ([2]; after jet mill micronization, NMR (FIG. 4)): 1.15 mol % | Long-term chemical stability in the liquid solution phase (acyl migration of the palmitoyl group from 2 to 3 position) ([2]; liquid solution phase): lacked long-term chemical stability | Isomeric stability in the suspension formulation, duration demonstrated ([2]; micronized MCAL-201 in suspension formulation, room temperature): 6 weeks | 1,3-EPRG isomeric content ([2]; solid micronized suspension stored at room temperature for 6 weeks, NMR (FIG. 5)): 0.0991 mol % | Isomeric stability in the solid phase compared with solution ([2]; solid phase): far greater than in solution | Physical stability of the micronized suspension (floating, sinking or aggregation), duration demonstrated [3]: > 6 months | Tear film break-up time (TBUT) [4]: extended TBUT | Ocular or systemic adverse events ([5]; any time or concentration evaluated (up to 10 mg/mL OU BID for 48 hours)): no ocular or systemic adverse events | Tolerability ([5]; topical ocular 35 μL drop, up to 10 mg/mL OU BID for 48 hours): well tolerated
